Reference: ChEMBL document CHEMBL1641516, “Preparation and evaluation of trisubstituted pyrimidines as phosphatidylinositol 3-kinase inhibitors. 3-Hydroxyphenol analogues and bioisosteric replacements” (Bioorg Med Chem, 2011)

How the values were obtained:
[1] = biological target: Phosphatidylinositol 4,5-bisphosphate 3-kinase catalytic subunit alpha isoform (Homo sapiens, UniProt P42336)
Description: Inhibition of human recombinant PI3K p110alpha after 1 hr by radiometric scintillation proximity assay

[2] = biological target: Phosphatidylinositol 4,5-bisphosphate 3-kinase catalytic subunit gamma isoform (Homo sapiens, UniProt P48736)
Description: Inhibition of human recombinant PI3K p110gamma after 1 hr by radiometric scintillation proximity assay

IGROV-1 [3] = test: cells; conditions: Homo sapiens, IGROV-1, 96 h
Description: Cytotoxicity against human IGROV1 cells after 96 hrs by SRB assay

[4] = biological target: Phosphatidylinositol 4,5-bisphosphate 3-kinase catalytic subunit beta isoform (Homo sapiens, UniProt P42338); test: Inhibition of human recombinant PI3K p110beta after 1 hr by radiometric scintillation proximity assay
IGROV-1 [5] = test: Cell cycle arrest in human IGROV1 cells assessed as accumulation at G1 phase at 5 fold IC50 after 24 hrs by flow cytometry; format: functional
IGROV-1 [6] = test: Cell cycle arrest in human IGROV1 cells assessed as accumulation at G2/M phase at 5 fold IC50 after 24 hrs by flow cytometry; format: functional
IGROV-1 [7] = test: Cell cycle arrest in human IGROV1 cells assessed as accumulation at G1 phase at 1 fold IC50 after 24 hrs by flow cytometry; format: functional
IGROV-1 [8] = test: Cell cycle arrest in human IGROV1 cells assessed as accumulation at S phase at 5 fold IC50 after 24 hrs by flow cytometry; format: functional
IGROV-1 [9] = test: Cell cycle arrest in human IGROV1 cells assessed as accumulation at G2/M phase at 1 fold IC50 after 24 hrs by flow cytometry; format: functional
IGROV-1 [10] = test: Cell cycle arrest in human IGROV1 cells assessed as accumulation at S phase at 1 fold IC50 after 24 hrs by flow cytometry; format: functional
[11] = Metabolic stability in mouse liver microsomes assessed as compound metabolized at […] after 30 mins by MS analysis; format: ADME, Microsome; conditions: read-out: Activity
[12] = Metabolic stability in mouse liver microsomes assessed as compound metabolized at […] after 15 mins by MS analysis; format: ADME, Microsome; conditions: read-out: Activity

Sequence of Phosphatidylinositol 4,5-bisphosphate 3-kinase catalytic subunit alpha isoform (P42336 whole entry, canonical isoform): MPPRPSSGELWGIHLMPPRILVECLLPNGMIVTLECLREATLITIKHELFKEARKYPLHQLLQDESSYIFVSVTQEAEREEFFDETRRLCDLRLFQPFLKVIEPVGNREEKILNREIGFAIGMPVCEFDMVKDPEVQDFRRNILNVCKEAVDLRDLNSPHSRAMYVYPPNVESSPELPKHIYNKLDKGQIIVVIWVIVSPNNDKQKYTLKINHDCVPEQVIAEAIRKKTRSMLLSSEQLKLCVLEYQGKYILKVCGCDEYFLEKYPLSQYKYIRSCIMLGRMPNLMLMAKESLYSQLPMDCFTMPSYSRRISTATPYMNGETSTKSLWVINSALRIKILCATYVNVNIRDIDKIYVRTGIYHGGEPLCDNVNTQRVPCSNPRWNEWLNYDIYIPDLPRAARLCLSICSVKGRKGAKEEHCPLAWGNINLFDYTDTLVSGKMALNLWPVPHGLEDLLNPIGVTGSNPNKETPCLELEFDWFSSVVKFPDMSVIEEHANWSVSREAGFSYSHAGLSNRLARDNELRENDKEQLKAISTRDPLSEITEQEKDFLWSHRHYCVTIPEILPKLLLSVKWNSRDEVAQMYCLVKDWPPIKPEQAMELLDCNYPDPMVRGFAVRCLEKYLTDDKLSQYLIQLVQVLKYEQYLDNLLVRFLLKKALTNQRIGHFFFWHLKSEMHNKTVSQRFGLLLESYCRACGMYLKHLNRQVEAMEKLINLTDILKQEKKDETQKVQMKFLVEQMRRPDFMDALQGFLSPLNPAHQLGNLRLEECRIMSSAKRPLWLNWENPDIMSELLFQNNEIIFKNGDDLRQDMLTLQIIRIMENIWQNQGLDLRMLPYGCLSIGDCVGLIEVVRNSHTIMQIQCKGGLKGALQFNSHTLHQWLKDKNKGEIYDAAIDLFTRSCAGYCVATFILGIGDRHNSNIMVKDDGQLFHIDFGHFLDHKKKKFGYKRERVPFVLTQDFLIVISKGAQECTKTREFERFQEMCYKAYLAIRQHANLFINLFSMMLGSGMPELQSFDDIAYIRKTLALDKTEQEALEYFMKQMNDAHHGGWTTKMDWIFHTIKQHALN
Sequence of Phosphatidylinositol 4,5-bisphosphate 3-kinase catalytic subunit beta isoform (P42338 whole entry, canonical isoform): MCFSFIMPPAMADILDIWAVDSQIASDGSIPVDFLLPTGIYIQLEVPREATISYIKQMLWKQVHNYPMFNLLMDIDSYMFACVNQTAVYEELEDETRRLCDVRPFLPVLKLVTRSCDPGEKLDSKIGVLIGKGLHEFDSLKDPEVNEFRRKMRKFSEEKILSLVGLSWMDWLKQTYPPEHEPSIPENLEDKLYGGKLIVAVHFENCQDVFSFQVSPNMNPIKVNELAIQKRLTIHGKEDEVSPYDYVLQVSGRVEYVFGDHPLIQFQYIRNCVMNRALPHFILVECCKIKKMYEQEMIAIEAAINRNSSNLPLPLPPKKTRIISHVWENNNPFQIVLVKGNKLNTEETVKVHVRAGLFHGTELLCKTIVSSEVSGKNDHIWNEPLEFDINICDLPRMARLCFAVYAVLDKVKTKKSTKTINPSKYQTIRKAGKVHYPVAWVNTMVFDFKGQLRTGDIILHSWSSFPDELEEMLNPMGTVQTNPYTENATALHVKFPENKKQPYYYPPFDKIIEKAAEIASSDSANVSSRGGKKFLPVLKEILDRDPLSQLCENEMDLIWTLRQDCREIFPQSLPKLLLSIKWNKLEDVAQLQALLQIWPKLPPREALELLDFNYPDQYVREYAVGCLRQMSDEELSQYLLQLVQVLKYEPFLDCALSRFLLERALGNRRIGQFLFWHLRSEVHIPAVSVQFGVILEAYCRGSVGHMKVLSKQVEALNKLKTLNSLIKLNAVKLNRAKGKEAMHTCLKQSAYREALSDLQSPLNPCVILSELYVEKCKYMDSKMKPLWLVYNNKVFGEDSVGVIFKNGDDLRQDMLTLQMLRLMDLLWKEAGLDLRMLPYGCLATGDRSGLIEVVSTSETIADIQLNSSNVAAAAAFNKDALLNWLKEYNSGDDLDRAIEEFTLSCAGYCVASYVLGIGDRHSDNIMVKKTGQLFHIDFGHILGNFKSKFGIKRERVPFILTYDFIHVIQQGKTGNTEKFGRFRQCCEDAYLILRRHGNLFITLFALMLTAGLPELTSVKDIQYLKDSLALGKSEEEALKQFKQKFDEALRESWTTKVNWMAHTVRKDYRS
Sequence of Phosphatidylinositol 4,5-bisphosphate 3-kinase catalytic subunit gamma isoform (P48736 whole entry, canonical isoform): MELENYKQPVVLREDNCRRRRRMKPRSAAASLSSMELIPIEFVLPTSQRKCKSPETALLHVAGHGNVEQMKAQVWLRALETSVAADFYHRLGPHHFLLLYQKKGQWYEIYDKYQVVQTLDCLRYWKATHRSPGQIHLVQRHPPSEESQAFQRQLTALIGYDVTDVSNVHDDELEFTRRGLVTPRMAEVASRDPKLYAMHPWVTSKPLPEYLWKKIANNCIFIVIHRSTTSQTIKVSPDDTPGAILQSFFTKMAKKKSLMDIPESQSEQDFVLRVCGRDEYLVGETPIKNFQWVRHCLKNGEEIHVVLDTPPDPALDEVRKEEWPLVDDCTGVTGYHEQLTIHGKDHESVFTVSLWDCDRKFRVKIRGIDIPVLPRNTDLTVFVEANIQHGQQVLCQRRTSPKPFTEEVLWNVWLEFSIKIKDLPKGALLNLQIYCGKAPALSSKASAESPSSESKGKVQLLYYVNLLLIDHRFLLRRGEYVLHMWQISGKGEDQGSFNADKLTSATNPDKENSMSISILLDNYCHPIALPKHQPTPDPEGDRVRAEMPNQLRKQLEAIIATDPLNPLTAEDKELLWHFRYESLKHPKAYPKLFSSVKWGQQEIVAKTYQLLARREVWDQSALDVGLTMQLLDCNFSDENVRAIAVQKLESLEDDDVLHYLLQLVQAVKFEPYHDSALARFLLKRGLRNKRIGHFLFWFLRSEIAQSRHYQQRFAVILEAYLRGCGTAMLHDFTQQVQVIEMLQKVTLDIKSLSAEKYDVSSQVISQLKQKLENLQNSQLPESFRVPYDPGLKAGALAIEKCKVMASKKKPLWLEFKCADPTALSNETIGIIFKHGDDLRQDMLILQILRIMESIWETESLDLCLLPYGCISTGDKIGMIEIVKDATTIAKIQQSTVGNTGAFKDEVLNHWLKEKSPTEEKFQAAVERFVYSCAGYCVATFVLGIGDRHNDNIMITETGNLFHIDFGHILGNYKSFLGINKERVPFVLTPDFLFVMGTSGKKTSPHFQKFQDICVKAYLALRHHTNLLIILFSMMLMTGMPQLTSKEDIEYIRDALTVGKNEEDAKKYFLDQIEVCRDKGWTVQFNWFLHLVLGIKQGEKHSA

Structure (SMILES) | IC50 [1] [µM] | GI50 (IGROV-1 [3]) [µM] | further results
Oc1cccc(-c2cc(NCc3ccncc3)nc(N3CCOCC3)n2)c1 | 1 | – | –
c1ccc(COc2nc(-c3ccc4cc[nH]c4c3)cc(N3CCOCC3)n2)nc1 | 5.2 | 9 | –
Oc1cccc(-c2cc(N3CCOCC3)nc(OCc3ccccn3)n2)c1 | 0.86 | 2.5 | –
CS(=O)(=O)Nc1ccc(-c2cc(N3CCOCC3)nc(OCc3ccccn3)n2)cc1 | 6.2 | 13.5 | –
Oc1cccc(-c2cc(N3CCOCC3)nc(NCc3ccccn3)n2)c1 | 1 | – | –
O=c1cc(N2CCOCC2)oc2c(-c3ccccc3)cccc12 [LY-294002] | – | – | Activity (IGROV-1 [5]): 82%; Activity (IGROV-1 [6]): 15%; Activity (IGROV-1 [7]): 72%; Activity (IGROV-1 [8]): 3%; Activity (IGROV-1 [9]): 7%; Activity (IGROV-1 [10]): 21%
c1ccc(CCNc2cc(-c3ccc4cc[nH]c4c3)nc(N3CCOCC3)n2)nc1 | > 10 | 12 | –
CS(=O)(=O)Nc1cccc(-c2cc(NCCc3ccncc3)nc(N3CCOCC3)n2)c1 | > 10 | 15 | –
Clc1ccc(-c2cc(N3CCOCC3)nc(-c3cccc(OCc4ccccc4)c3)n2)cc1Cl | > 10 | – | –
c1cncc(CCNc2nc(-c3cccc4[nH]ncc34)cc(N3CCOCC3)n2)c1 | 0.82 | 2.9 | –
c1cc(CCNc2nc(-c3ccc4cc[nH]c4c3)cc(N3CCOCC3)n2)ccn1 | > 10 | 3 | metabolised at 0.5 h [11]: 60%; metabolised at 0.25 h [12]: 38%
Clc1ccc(-c2cc(N3CCOCC3)nc(-c3cccc(OCc4ccccc4)c3)n2)cc1 | > 10 | – | –
c1ccc(CCNc2cc(-c3cccc4[nH]ncc34)nc(N3CCOCC3)n2)nc1 | 1.3 | 7.8 | metabolised at 0.5 h [11]: 84%; metabolised at 0.25 h [12]: 58%
c1ccc(CCNc2nc(-c3cccc4[nH]ncc34)cc(N3CCOCC3)n2)nc1 | 1.1 | 2.7 | –
c1cc(-c2cc(NCCc3ccncc3)nc(N3CCOCC3)n2)c2cn[nH]c2c1 | 0.77 | 2.7 | metabolised at 0.5 h [11]: 68%; metabolised at 0.25 h [12]: 37%
c1ccc(COc2cccc(-c3nc(-c4ccccn4)cc(N4CCOCC4)n3)c2)cc1 | > 10 | – | –

Structure (SMILES) | IC50 [1] [µM] | GI50 (IGROV-1 [3]) [µM] | further results
CS(=O)(=O)Nc1cccc(-c2cc(N3CCOCC3)nc(NCCc3ccncc3)n2)c1 | 9.1 | 6.2 | metabolised at 0.5 h [11]: 53%; metabolised at 0.25 h [12]: 33%
c1cc(CCNc2cc(-c3ccc4cc[nH]c4c3)nc(N3CCOCC3)n2)ccn1 | > 10 | 14.5 | –
c1ccc(COc2cccc(-c3nc(-c4cccnc4)cc(N4CCOCC4)n3)c2)cc1 | > 10 | – | –
c1ccc(COc2cc(-c3ccc4cc[nH]c4c3)nc(N3CCOCC3)n2)nc1 | > 10 | 6 | –
c1ccc(COc2cccc(-c3nc(-c4ccncc4)cc(N4CCOCC4)n3)c2)cc1 | > 10 | – | –
c1ccc(COc2nc(-c3cccc4[nH]ncc34)cc(N3CCOCC3)n2)nc1 | 1.35 | 2.3 | –
Oc1cccc(-c2cc(N3CCOCC3)nc(NCc3ccncc3)n2)c1 | 0.86 | – | –
Oc1cccc(-c2cc(NCc3ccccn3)nc(N3CCOCC3)n2)c1 | 0.9 | – | IC50 [2]: 7.6 µM; IC50 [4]: 2.3 µM
CS(=O)(=O)Nc1cccc(-c2cc(NCCc3ccccn3)nc(N3CCOCC3)n2)c1 | > 10 | 15 | –
CS(=O)(=O)Nc1cccc(-c2cc(NCCc3cccnc3)nc(N3CCOCC3)n2)c1 | > 10 | 11.6 | –
c1cncc(CCNc2nc(-c3ccc4cc[nH]c4c3)cc(N3CCOCC3)n2)c1 | 7.2 | 4.2 | –
c1cncc(CCNc2cc(-c3ccc4cc[nH]c4c3)nc(N3CCOCC3)n2)c1 | > 10 | 6 | –
CS(=O)(=O)Nc1ccc(-c2cc(OCc3ccccn3)nc(N3CCOCC3)n2)cc1 | > 10 | 16 | –
Oc1cccc(-c2cc(N3CCOCC3)nc(NCc3cccnc3)n2)c1 | 0.88 | – | –
CS(=O)(=O)Nc1cccc(-c2cc(N3CCOCC3)nc(NCCc3cccnc3)n2)c1 | > 10 | 16.2 | –
CS(=O)(=O)Nc1cccc(-c2cc(N3CCOCC3)nc(NCCc3ccccn3)n2)c1 | > 10 | 11.5 | –

The next lines start with results.

IC50 [1] [µM] | Structure (SMILES) | GI50 (IGROV-1 [3]) [µM] | further results
0.2 | Oc1cccc(-c2nc(-c3ccc(Cl)c(Cl)c3)cc(N3CCOCC3)n2)c1 | – | –
0.11 | Oc1cccc(-c2cc(OCc3ccccn3)nc(N3CCOCC3)n2)c1 | 1.5 | IC50 [2]: 0.73 µM; IC50 [4]: 0.37 µM
0.69 | Oc1cccc(-c2nc(-c3ccc(Cl)cc3)cc(N3CCOCC3)n2)c1 | – | –
0.26 | Oc1cccc(-c2nc(-c3cccnc3)cc(N3CCOCC3)n2)c1 | 0.63 | IC50 [2]: 0.34 µM; IC50 [4]: 0.44 µM
0.5 | c1ccc(COc2cc(-c3cccc4[nH]ncc34)nc(N3CCOCC3)n2)nc1 | 1.9 | metabolised at 0.5 h [11]: 66%; metabolised at 0.25 h [12]: 44%
0.14 | Oc1cccc(-c2cc(NCCc3ccncc3)nc(N3CCOCC3)n2)c1 | 0.7 | IC50 [2]: 0.74 µM; Activity (IGROV-1 [5]): 87%; metabolised at 0.5 h [11]: 71%; Activity (IGROV-1 [6]): 10%; Activity (IGROV-1 [7]): 75%; metabolised at 0.25 h [12]: 54%; Activity (IGROV-1 [8]): 2%; Activity (IGROV-1 [9]): 4%; Activity (IGROV-1 [10]): 21%; IC50 [4]: 1.6 µM
0.14 | Oc1cccc(-c2nc(-c3ccncc3)cc(N3CCOCC3)n2)c1 | 1.2 | IC50 [2]: 0.15 µM; IC50 [4]: 0.2 µM
0.66 | c1cncc(CCNc2cc(-c3cccc4[nH]ncc34)nc(N3CCOCC3)n2)c1 | 2.9 | metabolised at 0.5 h [11]: 98%; metabolised at 0.25 h [12]: 66%
0.23 | Oc1cccc(-c2cc(N3CCOCC3)nc(NCCc3ccncc3)n2)c1 | 0.95 | –
0.44 | c1cc(-c2cc(N3CCOCC3)nc(NCCc3ccncc3)n2)c2cn[nH]c2c1 | 1.5 | metabolised at 0.5 h [11]: 74%; metabolised at 0.25 h [12]: 49%
0.25 | Oc1cccc(-c2cc(N3CCOCC3)nc(NCCc3cccnc3)n2)c1 | 0.75 | –
0.18 | Oc1cccc(-c2cc(N3CCOCC3)nc(NCCc3ccccn3)n2)c1 | 1.2 | IC50 [2]: 0.38 µM; IC50 [4]: 5.2 µM
0.062 | Oc1cccc(-c2nc(-c3ccccn3)cc(N3CCOCC3)n2)c1 | 0.37 | IC50 [2]: 0.044 µM; Activity (IGROV-1 [5]): 84%; metabolised at 0.5 h [11]: 57%; Activity (IGROV-1 [6]): 10%; Activity (IGROV-1 [7]): 76%; metabolised at 0.25 h [12]: 39%; Activity (IGROV-1 [8]): 5%; Activity (IGROV-1 [9]): 3%; Activity (IGROV-1 [10]): 20%; IC50 [4]: 0.1 µM
0.26 | Oc1cccc(-c2cc(NCCc3cccnc3)nc(N3CCOCC3)n2)c1 | 1.2 | IC50 [2]: 0.96 µM; IC50 [4]: 1.9 µM
0.25 | Oc1cccc(-c2cc(NCCc3ccccn3)nc(N3CCOCC3)n2)c1 | 2.2 | IC50 [2]: 0.83 µM; IC50 [4]: 2.6 µM
